Source: patent US20240382482A1, “PLASMA KALLIKREIN INHIBITORS” (TAKEDA PHARMACEUTICAL COMPANY LIMITED, priority 2021, published 2024)
Counter-ions that a name gives are not always drawn.

Target: human activated kallikrein enzyme (Homo sapiens, UniProt P03952)
Experiment: Inhibition of human activated kallikrein enzyme, fluorogenic peptide substrate assay (500 pM enzyme format)
Type: biochemical
Details: 500 pM activated kallikrein, 300 μM PFR-AMC substrate, 30 min preincubation, 10 min reaction, room temperature; read-out: Primary Dose Response Assay: Average EC50
Description: Compounds were evaluated for inhibition of the human activated kallikrein enzyme in two formats of an assay employing a fluorogenic peptide substrate. In one assay format, the concentrations of reagents were as follows: 20 mM Tris pH 7.5, 1 mM EDTA, 150 mM sodium chloride, 0.1% PEG-400, 0.1% Triton X-100, 500 pM activated kallikrein enzyme, 300 μM Pro-Phe-Arg-7-amido-4-methylcoumarin (PFR-AMC) substrate. Prior to reaction initiation with substrate, enzyme and inhibitors were preincubated for 30 min at room temperature. After initiation with substrate, reactions were incubated for 10 min at room temperature and fluorescence emission at 460 nm from 380 nm excitation measured with a microplate reader. In another assay format, the concentrations of reagents were as follows: 20 mM Tris pH 7.5, 1 mM EDTA, 150 mM sodium chloride, 0.1% PEG-400, 0.1% Triton X-100, 5 pM activated kallikrein enzyme, 300 uM PFR-AMC substrate. Prior to reaction initiation with substrate, enzyme and inhibitors were preincubated for 30 min at room temperature. After initiation with substrate, reactions were incubated for 18 hr at room temperature and fluorescence emission at 460 nm from 380 nm excitation measured with a microplate reader.
Table 1 provides the results of the assay in the format with 500 pM activated kallikrein assay. For the compounds listed in Table 1, the EC50 values are reported according to the following ranges: A≤5.0 nM; 5.0 nM<B≤50 nM; 50 nM<C≤500 nM; 500 nM<D≤9000 nM; 9000 nM<E.

Chain of human activated kallikrein enzyme (P03952 391-638 limits assumed): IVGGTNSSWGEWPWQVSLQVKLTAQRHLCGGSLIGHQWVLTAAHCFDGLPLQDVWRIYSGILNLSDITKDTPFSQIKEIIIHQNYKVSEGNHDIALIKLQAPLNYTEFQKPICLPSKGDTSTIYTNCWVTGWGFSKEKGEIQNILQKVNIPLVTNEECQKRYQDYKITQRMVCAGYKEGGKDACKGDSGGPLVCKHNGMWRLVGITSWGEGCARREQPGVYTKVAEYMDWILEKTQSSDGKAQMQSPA
Chain of human activated kallikrein enzyme (P03952 20-390 partner limits assumed): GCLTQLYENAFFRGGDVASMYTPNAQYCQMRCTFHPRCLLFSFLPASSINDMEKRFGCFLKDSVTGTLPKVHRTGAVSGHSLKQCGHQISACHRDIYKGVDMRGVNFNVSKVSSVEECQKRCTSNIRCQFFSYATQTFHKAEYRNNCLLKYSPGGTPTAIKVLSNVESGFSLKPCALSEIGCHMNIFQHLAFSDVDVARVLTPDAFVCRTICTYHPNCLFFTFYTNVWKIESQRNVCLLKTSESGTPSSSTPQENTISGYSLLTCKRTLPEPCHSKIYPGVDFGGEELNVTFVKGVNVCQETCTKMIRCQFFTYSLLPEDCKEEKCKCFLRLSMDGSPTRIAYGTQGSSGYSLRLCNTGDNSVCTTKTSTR

Cc1cc(C(=N)N)cc(C)c1CNc1cc(OCc2cn3cc(C4CC4)cc(CC(=O)O)c3n2)ncn1 [Example 95, 2-(2-((6-(4-carbamimidoyl-2,6-dimethylbenzylamino)pyrimidin-4-yloxy)methyl)-6-cyclopropylimidazo[1,2-a]pyridin-8-yl)acetic acid]
EC50: ≤ 5 nM

CC(Nc1cc(NC(=O)Cc2ncn3ccc(Cl)cc23)ncn1)c1cn2cc(C3CC3)ccc2n1 (stereo not shown) [Example 45, 2-(7-chloroimidazo[1,5-a]pyridin-1-yl)-N-(6-((1-(6-cyclopropylimidazo[1,2-a]pyridin-2-yl)ethyl)amino)pyrimidin-4-yl)acetamide]
EC50: 5 to 50 nM

N#Cc1cc(C2CC2)cn2cc(COc3cc(NC(=O)Cc4ncn5ccc(Cl)cc45)ncn3)nc12 [Example 22, 2-(7-chloroimidazo[1,5-a]pyridin-1-yl)-N-(6-((8-cyano-6-cyclopropylimidazo[1,2-a]pyridin-2-yl)methoxy)pyrimidin-4-yl)acetamide]
EC50: 5 to 50 nM

COc1ccc2oc(=O)n(CC(=O)Nc3cc(NCc4cn5cc(C6CC6)ccc5n4)ncn3)c2c1 [Example 122, N-(6-(((6-cyclopropylimidazo[1,2-a]pyridin-2-yl)methyl)amino)pyrimidin-4-yl)-2-(5-methoxy-2-oxobenzo[d]oxazol-3 (2H)-yl)acetamide]
EC50: > 9000 nM

O=C(Cc1cc(Cl)ccc1-c1nnn[nH]1)Nc1cc(NCc2cn3cc(C4CC4)ccc3n2)ncn1 [Example 10, 2-(5-chloro-2-(1H-tetrazol-5-yl)phenyl)-N-(6-(((6-cyclopropylimidazo[1,2-a]pyridin-2-yl)methyl)amino)pyrimidin-4-yl)acetamide]
EC50: > 9000 nM

O=C(Cn1cc(Cl)ccc1=O)Nc1cc(NCc2cn3cc(C4CC4)ccc3n2)ncn1 [Example 119, 2-(5-chloro-2-oxopyridin-1 (2H)-yl)-N-(6-(((6-cyclopropylimidazo[1,2-a]pyridin-2-yl)methyl)amino)pyrimidin-4-yl)acetamide]
EC50: > 9000 nM

O=C(CC1(c2cccc(Cl)c2)CC1)Nc1cc(NCc2cn3cc(C4CC4)ccc3n2)ccn1 [Example 126, 2-(1-(3-chlorophenyl)cyclopropyl)-N-(4-(((6-cyclopropylimidazo[1,2-a]pyridin-2-yl)methyl)amino)pyridin-2-yl)acetamide]
EC50: 500 to 9000 nM

CCOC(=O)c1nc(NCc2c(C)cc(C(=N)N)cc2C)cc(OCc2cn3cc(C4CC4)ccc3n2)n1 [Example 82, ethyl 4-((4-carbamimidoyl-2,6-dimethylbenzyl)amino)-6-((6-cyclopropylimidazo[1,2-a]pyridin-2-yl)methoxy)pyrimidine-2-carboxylate]
EC50: ≤ 5 nM

O=C(Cc1ncn2ccc(Cl)cc12)Nc1cc(C(=O)c2cn3cc(C4CC4)ccc3n2)ncn1 [Example 58, 2-(7-chloroimidazo[1,5-a]pyridin-1-yl)-N-(6-(6-cyclopropylimidazo[1,2-a]pyridine-2-carbonyl)pyrimidin-4-yl)acetamide]
EC50: 500 to 9000 nM

CC(C)(Cc1cc(C2CC2)cn2cc(CNc3cc(NC(=O)Cc4ncn5ccc(Cl)cc45)ncn3)nc12)C(=O)O [Example 40, 3-(2-(((6-(2-(7-chloroimidazo[1,5-a]pyridin-1-yl)acetamido)pyrimidin-4-yl)amino)methyl)-6-cyclopropylimidazo[1,2-a]pyridin-8-yl)-2,2-dimethylpropanoic acid]
EC50: ≤ 5 nM

C[C@H](c1cccc(Cl)c1)[C@@H](C)C(=O)Nc1cc(NCc2cn3cc(C4CC4)ccc3n2)ncn1 [Example 134, (2R,3S)-3-(3-chlorophenyl)-N-(6-(((6-cyclopropylimidazo[1,2-a]pyridin-2-yl)methyl)amino)pyrimidin-4-yl)-2-methylbutanamide]
EC50: 500 to 9000 nM

COc1ccc(-n2cnnn2)c(CNc2cc(C(O)c3cn4cc(C5CC5)ccc4n3)ncn2)c1F (stereo not shown) [Example 63, (6-cyclopropylimidazo[1,2-a]pyridin-2-yl)(6-((2-fluoro-3-methoxy-6-(H-tetrazol-1-yl)benzyl)amino)pyrimidin-4-yl)methanol]
EC50: 5 to 50 nM

O=C(Cc1ncn2ccc(Cl)cc12)Nc1cc(Cc2cn3cc(C4CC4)ccc3n2)ncn1 [Example 57, 2-(7-chloroimidazo[1,5-a]pyridin-1-yl)-N-(6-((6-cyclopropylimidazo[1,2-a]pyridin-2-yl)methyl)pyrimidin-4-yl)acetamide formic acid salt]
EC50: ≤ 5 nM

COc1ccc(C#N)c(CC(=O)Nc2cc(NCc3cn4cc(C5CC5)ccc4n3)ncn2)c1F [Example 3, 2-(6-cyano-2-fluoro-3-methoxyphenyl)-N-(6-(((6-cyclopropylimidazo[1,2-a]pyridin-2-yl)methyl)amino)pyrimidin-4-yl)acetamide]
EC50: 500 to 9000 nM

O=C(Cc1ncnc2ccc(Cl)cc12)Nc1cc(NCc2cn3cc(C4CC4)ccc3n2)ncn1 [Example 104, 2-(6-chloroquinazolin-4-yl)-N-(6-(((6-cyclopropylimidazo[1,2-a]pyridin-2-yl)methyl)amino)pyrimidin-4-yl)acetamide]
EC50: > 9000 nM

CCOC(=O)NC(=N)c1cc(C)c(CNc2cc(OCc3cn4cc(C5CC5)ccc4n3)nc(C(=O)OCC)n2)c(C)c1 [Example 86, ethyl 4-((6-cyclopropylimidazo[1,2-a]pyridin-2-yl)methoxy)-6-(4-(N-(ethoxycarbonyl)carbamimidoyl)-2,6-dimethylbenzylamino)pyrimidine-2-carboxylate]
EC50: 50 to 500 nM

O=C(NCc1ncn2ccc(Cl)cc12)c1cnnc(OCc2cn3cc(C4CC4)ccc3n2)c1 [Example 66, N-((7-chloroimidazo[1,5-a]pyridin-1-yl)methyl)-6-((6-cyclopropylimidazo[1,2-a]pyridin-2-yl)methoxy)pyridazine-4-carboxamide]
EC50: 5 to 50 nM

CCOC(=O)C(C)(C)Cc1nc(NCc2c(C)cc(C(=N)N)cc2C)cc(OCc2cn3cc(C4CC4)ccc3n2)n1 [Example 93, ethyl 3-(4-((4-carbamimidoyl-2,6-dimethylbenzyl)amino)-6-((6-cyclopropylimidazo[1,2-a]pyridin-2-yl)methoxy)pyrimidin-2-yl)-2,2-dimethylpropanoate]
EC50: ≤ 5 nM

CCOC(=O)CCc1cc(C2CC2)cn2cc(CNc3cc(NC(=O)Cc4ncn5ccc(Cl)cc45)ncn3)nc12 [Example 38, ethyl 3-(2-(((6-(2-(7-chloroimidazo[1,5-a]pyridin-1-yl)acetamido)pyrimidin-4-yl)amino)methyl)-6-cyclopropylimidazo[1,2-a]pyridin-8-yl)propanoate]
EC50: ≤ 5 nM

CC(C(=O)Nc1cc(NCc2cn3cc(C4CC4)ccc3n2)ncn1)N(C)c1cccc(Cl)c1 (stereo not shown) [Example 9, 2-((3-chlorophenyl)(methyl)amino)-N-(6-(((6-cyclopropylimidazo[1,2-a]pyridin-2-yl)methyl)amino)pyrimidin-4-yl)propanamide]
EC50: 500 to 9000 nM

COc1ccc(-n2cnnn2)c(CC(=O)Nc2cc(NCc3cn4cc(C5CC5)ccc4n3)ncn2)c1F [Example 37]
EC50: ≤ 5 nM

O=C(Cn1c(=O)oc2ccc(Cl)cc21)Nc1cc(NCc2cn3cc(C4CC4)ccc3n2)ncn1 [Example 123, 2-(5-chloro-2-oxobenzo[d]oxazol-3 (2H)-yl)-N-(6-(((6-cyclopropylimidazo[1,2-a]pyridin-2-yl)methyl)amino)pyrimidin-4-yl)acetamide]
EC50: 500 to 9000 nM

Cc1cc(N)nc(C)c1CNc1cc(NCc2cn3cc(C4CC4)ccc3n2)ncn1 [Example 111, N^4-((6-amino-2,4-dimethylpyridin-3-yl)methyl)-N^6-((6-cyclopropylimidazo[1,2-a]pyridin-2-yl)methyl)pyrimidine-4,6-diamine]
EC50: ≤ 5 nM

N=S(=O)(Nc1cc(NCc2cn3cc(C4CC4)ccc3n2)ncn1)C1CC1c1cccc(Cl)c1 (racemic) [Example 142, (SR,1SR,2RS)-2-(3-chlorophenyl)-N-(6-(((6-cyclopropylimidazo[1,2-a]pyridin-2-yl)methyl)amino)pyrimidin-4-yl)cyclopropane-1-sulfonimidamide]
EC50: 500 to 9000 nM

CC(O)(C(=O)Nc1cc(NCc2cn3cc(C4CC4)ccc3n2)ncn1)c1ncn2ccc(Cl)c(F)c12 (stereo not shown) [Example 106, 2-(7-chloro-8-fluoroimidazo[1,5-a]pyridin-1-yl)-N-(6-(((6-cyclopropylimidazo[1,2-a]pyridin-2-yl)methyl)amino)pyrimidin-4-yl)-2-hydroxypropanamide]
EC50: > 9000 nM

O=C(Cc1ncn2ccc(Cl)cc12)Nc1cc(C(F)(F)c2cn3cc(C4CC4)ccc3n2)ncn1 [Example 60, 2-(7-chloroimidazo[1,5-a]pyridin-1-yl)-N-(6-((6-cyclopropylimidazo[1,2-a]pyridin-2-yl)difluoromethyl)pyrimidin-4-yl)acetamide formic acid salt]
EC50: 50 to 500 nM

CC(Cc1cccc(Cl)c1)C(=O)Nc1cc(NCc2cn3cc(C4CC4)ccc3n2)ncn1 (stereo not shown) [Example 7, 3-(3-chlorophenyl)-N-(6-(((6-cyclopropylimidazo[1,2-a]pyridin-2-yl)methyl)amino)pyrimidin-4-yl)-2-methylpropanamide]
EC50: 500 to 9000 nM

Cc1cc(CN)cc(C)c1CNc1cc(OCc2cn3cc(C4CC4)ccc3n2)ncn1 [Example 108, N-(4-(aminomethyl)-2,6-dimethylbenzyl)-6-((6-cyclopropylimidazo[1,2-a]pyridin-2-yl)methoxy)pyrimidin-4-amine]
EC50: ≤ 5 nM
